Values after ≈ are worked out from the molar mass of the structure shown.
Legend:
Assay type in all cases: functional
Pseudomonas aeruginosa [1] = assay: Antimicrobial activity against Pseudomonas aeruginosa MTCC 1688 assessed as diameter of growth inhibition zone at 100 ug/ml after 18-24 hr by agar cup diffusion method; conditions: read-out: DIZ
Staphylococcus aureus [2] = assay: Antimicrobial activity against Staphylococcus aureus MTCC 96 assessed as diameter of growth inhibition zone at 50 ug/ml after 18-24 hr by agar cup diffusion method; conditions: read-out: DIZ
Streptococcus pyogenes [3] = assay: Antimicrobial activity against Streptococcus pyogenes MTCC 442 assessed as diameter of growth inhibition zone at 250 ug/ml after 18-24 hr by agar cup diffusion method; conditions: read-out: DIZ
Trichophyton rubrum [4] = assay: Antimicrobial activity against Trichophyton rubrum MTCC 296 assessed as diameter of growth inhibition zone at 250 ug/ml after 48-96 hr by agar cup diffusion method; conditions: read-out: DIZ
Klebsiella pneumoniae [5] = assay: Antimicrobial activity against Klebsiella pneumoniae MTCC 109 assessed as diameter of growth inhibition zone at 25 ug/ml after 18-24 hr by agar cup diffusion method; conditions: read-out: DIZ
Pseudomonas aeruginosa [6] = assay: Antimicrobial activity against Pseudomonas aeruginosa MTCC 1688 by agar cup diffusion method
Candida albicans [7] = assay: Antimicrobial activity against Candida albicans MTCC 227 assessed as diameter of growth inhibition zone at 250 ug/ml after 48-96 hr by agar cup diffusion method; conditions: read-out: DIZ
Klebsiella pneumoniae [8] = assay: Antimicrobial activity against Klebsiella pneumoniae MTCC 109 assessed as diameter of growth inhibition zone at 50 ug/ml after 18-24 hr by agar cup diffusion method; conditions: read-out: DIZ
Staphylococcus aureus [9] = assay: Antimicrobial activity against Staphylococcus aureus MTCC 96 assessed as diameter of growth inhibition zone at 100 ug/ml after 18-24 hr by agar cup diffusion method; conditions: read-out: DIZ
Trichophyton rubrum [10] = assay: Antimicrobial activity against Trichophyton rubrum MTCC 296 assessed as diameter of growth inhibition zone at 25 ug/ml after 48-96 hr by agar cup diffusion method; conditions: read-out: DIZ
Candida albicans [11] = assay: Antimicrobial activity against Candida albicans MTCC 227 assessed as diameter of growth inhibition zone at 50 ug/ml after 48-96 hr by agar cup diffusion method; conditions: read-out: DIZ
Aspergillus clavatus [12] = assay: Antimicrobial activity against Aspergillus clavatus MTCC 1323 assessed as diameter of growth inhibition zone at 50 ug/ml after 48-96 hr by agar cup diffusion method; conditions: read-out: DIZ
Penicillium [13] = assay: Antimicrobial activity against Penicillium wild strain assessed as diameter of growth inhibition zone at 50 ug/ml after 48-96 hr by agar cup diffusion method; conditions: read-out: DIZ
Klebsiella pneumoniae [14] = assay: Antimicrobial activity against Klebsiella pneumoniae MTCC 109 assessed as diameter of growth inhibition zone at 100 ug/ml after 18-24 hr by agar cup diffusion method; conditions: read-out: DIZ
Aspergillus clavatus [15] = assay: Antimicrobial activity against Aspergillus clavatus MTCC 1323 assessed as diameter of growth inhibition zone at 25 ug/ml after 48-96 hr by agar cup diffusion method; conditions: read-out: DIZ
Escherichia coli [16] = assay: Antimicrobial activity against Escherichia coli MTCC 443 assessed as diameter of growth inhibition zone at 25 ug/ml after 18-24 hr by agar cup diffusion method; conditions: read-out: DIZ
Staphylococcus aureus [17] = assay: Antimicrobial activity against Staphylococcus aureus MTCC 96 assessed as diameter of growth inhibition zone at 25 ug/ml after 18-24 hr by agar cup diffusion method; conditions: read-out: DIZ
Penicillium [18] = assay: Antimicrobial activity against Penicillium wild strain assessed as diameter of growth inhibition zone at 100 ug/ml after 48-96 hr by agar cup diffusion method; conditions: read-out: DIZ
Trichophyton rubrum [19] = assay: Antimicrobial activity against Trichophyton rubrum MTCC 296 assessed as diameter of growth inhibition zone at 50 ug/ml after 48-96 hr by agar cup diffusion method; conditions: read-out: DIZ
Staphylococcus aureus [20] = assay: Antimicrobial activity against Staphylococcus aureus MTCC 96 by agar cup diffusion method
Klebsiella pneumoniae [21] = assay: Antimicrobial activity against Klebsiella pneumoniae MTCC 109 assessed as diameter of growth inhibition zone at 250 ug/ml after 18-24 hr by agar cup diffusion method; conditions: read-out: DIZ
Aspergillus clavatus [22] = assay: Antimicrobial activity against Aspergillus clavatus MTCC 1323 by agar cup diffusion method
Pseudomonas aeruginosa [23] = assay: Antimicrobial activity against Pseudomonas aeruginosa MTCC 1688 assessed as diameter of growth inhibition zone at 25 ug/ml after 18-24 hr by agar cup diffusion method; conditions: read-out: DIZ
Streptococcus pyogenes [24] = assay: Antimicrobial activity against Streptococcus pyogenes MTCC 442 assessed as diameter of growth inhibition zone at 100 ug/ml after 18-24 hr by agar cup diffusion method; conditions: read-out: DIZ
Streptococcus pyogenes [25] = assay: Antimicrobial activity against Streptococcus pyogenes MTCC 442 assessed as diameter of growth inhibition zone at 50 ug/ml after 18-24 hr by agar cup diffusion method; conditions: read-out: DIZ
Penicillium [26] = assay: Antimicrobial activity against Penicillium wild strain by agar cup diffusion method
Pseudomonas aeruginosa [27] = assay: Antimicrobial activity against Pseudomonas aeruginosa MTCC 1688 assessed as diameter of growth inhibition zone at 250 ug/ml after 18-24 hr by agar cup diffusion method; conditions: read-out: DIZ
Escherichia coli [28] = assay: Antimicrobial activity against Escherichia coli MTCC 443 assessed as diameter of growth inhibition zone at 250 ug/ml after 18-24 hr by agar cup diffusion method; conditions: read-out: DIZ
Pseudomonas aeruginosa [29] = assay: Antimicrobial activity against Pseudomonas aeruginosa MTCC 1688 assessed as diameter of growth inhibition zone at 50 ug/ml after 18-24 hr by agar cup diffusion method; conditions: read-out: DIZ
Escherichia coli [30] = assay: Antimicrobial activity against Escherichia coli MTCC 443 assessed as diameter of growth inhibition zone at 50 ug/ml after 18-24 hr by agar cup diffusion method; conditions: read-out: DIZ
Escherichia coli [31] = assay: Antimicrobial activity against Escherichia coli MTCC 443 by agar cup diffusion method
Candida albicans [32] = assay: Antimicrobial activity against Candida albicans MTCC 227 assessed as diameter of growth inhibition zone at 100 ug/ml after 48-96 hr by agar cup diffusion method; conditions: read-out: DIZ
Klebsiella pneumoniae [33] = assay: Antimicrobial activity against Klebsiella pneumoniae MTCC 109 by agar cup diffusion method
Escherichia coli [34] = assay: Antimicrobial activity against Escherichia coli MTCC 443 assessed as diameter of growth inhibition zone at 100 ug/ml after 18-24 hr by agar cup diffusion method; conditions: read-out: DIZ
Penicillium [35] = assay: Antimicrobial activity against Penicillium wild strain assessed as diameter of growth inhibition zone at 25 ug/ml after 48-96 hr by agar cup diffusion method; conditions: read-out: DIZ
Candida albicans [36] = assay: Antimicrobial activity against Candida albicans MTCC 227 by agar cup diffusion method
Trichophyton rubrum [37] = assay: Antimicrobial activity against Trichophyton rubrum MTCC 296 assessed as diameter of growth inhibition zone at 100 ug/ml after 48-96 hr by agar cup diffusion method; conditions: read-out: DIZ
Trichophyton rubrum [38] = assay: Antimicrobial activity against Trichophyton rubrum MTCC 296 by agar cup diffusion method
Staphylococcus aureus [39] = assay: Antimicrobial activity against Staphylococcus aureus MTCC 96 assessed as diameter of growth inhibition zone at 250 ug/ml after 18-24 hr by agar cup diffusion method; conditions: read-out: DIZ
Aspergillus clavatus [40] = assay: Antimicrobial activity against Aspergillus clavatus MTCC 1323 assessed as diameter of growth inhibition zone at 100 ug/ml after 48-96 hr by agar cup diffusion method; conditions: read-out: DIZ
Aspergillus clavatus [41] = assay: Antimicrobial activity against Aspergillus clavatus MTCC 1323 assessed as diameter of growth inhibition zone at 250 ug/ml after 48-96 hr by agar cup diffusion method; conditions: read-out: DIZ
Candida albicans [42] = assay: Antimicrobial activity against Candida albicans MTCC 227 assessed as diameter of growth inhibition zone at 25 ug/ml after 48-96 hr by agar cup diffusion method; conditions: read-out: DIZ
Streptococcus pyogenes [43] = assay: Antimicrobial activity against Streptococcus pyogenes MTCC 442 assessed as diameter of growth inhibition zone at 25 ug/ml after 18-24 hr by agar cup diffusion method; conditions: read-out: DIZ
Streptococcus pyogenes [44] = assay: Antimicrobial activity against Streptococcus pyogenes MTCC 442 by agar cup diffusion method
Penicillium [45] = assay: Antimicrobial activity against Penicillium wild strain assessed as diameter of growth inhibition zone at 250 ug/ml after 48-96 hr by agar cup diffusion method; conditions: read-out: DIZ

SMILES: O=C(/C=C/c1ccc([N+](=O)[O-])cc1)C1C(=O)NC(=S)NC1=O
- zone of inhibition at 100 µg/mL (Pseudomonas aeruginosa [1]): 18 mm
- zone of inhibition at 50 µg/mL (Staphylococcus aureus [2]): 13 mm
- zone of inhibition at 250 µg/mL (Streptococcus pyogenes [3]): 23 mm
- zone of inhibition at 250 µg/mL (Trichophyton rubrum [4]): 25 mm
- zone of inhibition at 25 µg/mL (Klebsiella pneumoniae [5]): 11 mm
- MBC (Pseudomonas aeruginosa [6]): 250 µg/mL (≈ 783 µM)
- MIC (Pseudomonas aeruginosa [6]): 250 µg/mL (≈ 783 µM)
- zone of inhibition at 250 µg/mL (Candida albicans [7]): 25 mm
- zone of inhibition at 50 µg/mL (Klebsiella pneumoniae [8]): 13 mm
- zone of inhibition at 100 µg/mL (Staphylococcus aureus [9]): 18 mm
- zone of inhibition at 25 µg/mL (Trichophyton rubrum [10]): 20 mm
- zone of inhibition at 50 µg/mL (Candida albicans [11]): 21 mm
- zone of inhibition at 50 µg/mL (Aspergillus clavatus [12]): 21 mm
- zone of inhibition at 50 µg/mL (Penicillium [13]): 21 mm
- zone of inhibition at 100 µg/mL (Klebsiella pneumoniae [14]): 15 mm
- zone of inhibition at 25 µg/mL (Aspergillus clavatus [15]): 20 mm
- zone of inhibition at 25 µg/mL (Escherichia coli [16]): 12 mm
- zone of inhibition at 25 µg/mL (Staphylococcus aureus [17]): 11 mm
- zone of inhibition at 100 µg/mL (Penicillium [18]): 23 mm
- zone of inhibition at 50 µg/mL (Trichophyton rubrum [19]): 22 mm
- MBC (Staphylococcus aureus [20]): 200 µg/mL (≈ 626 µM)
- MIC (Staphylococcus aureus [20]): 125 µg/mL (≈ 391 µM)
- zone of inhibition at 250 µg/mL (Klebsiella pneumoniae [21]): 16 mm
- MFC (Aspergillus clavatus [22]): 1000 µg/mL (≈ 3130 µM)
- MIC (Aspergillus clavatus [22]): 1000 µg/mL (≈ 3130 µM)
- zone of inhibition at 25 µg/mL (Pseudomonas aeruginosa [23]): 11 mm
- zone of inhibition at 100 µg/mL (Streptococcus pyogenes [24]): 19 mm
- zone of inhibition at 50 µg/mL (Streptococcus pyogenes [25]): 15 mm
- MFC (Penicillium [26]): 500 µg/mL (≈ 1570 µM)
- MIC (Penicillium [26]): 500 µg/mL (≈ 1570 µM)
- zone of inhibition at 250 µg/mL (Pseudomonas aeruginosa [27]): 20 mm
- zone of inhibition at 250 µg/mL (Escherichia coli [28]): 23 mm
- zone of inhibition at 50 µg/mL (Pseudomonas aeruginosa [29]): 13 mm
- zone of inhibition at 50 µg/mL (Escherichia coli [30]): 15 mm
- MBC (Escherichia coli [31]): 500 µg/mL (≈ 1570 µM)
- MIC (Escherichia coli [31]): 250 µg/mL (≈ 783 µM)
- zone of inhibition at 100 µg/mL (Candida albicans [32]): 25 mm
- MBC (Klebsiella pneumoniae [33]): 200 µg/mL (≈ 626 µM)
- MIC (Klebsiella pneumoniae [33]): 200 µg/mL (≈ 626 µM)
- zone of inhibition at 100 µg/mL (Escherichia coli [34]): 19 mm
- zone of inhibition at 25 µg/mL (Penicillium [35]): 21 mm
- MFC (Candida albicans [36]): 1000 µg/mL (≈ 3130 µM)
- MIC (Candida albicans [36]): 1000 µg/mL (≈ 3130 µM)
- zone of inhibition at 100 µg/mL (Trichophyton rubrum [37]): 23 mm
- MFC (Trichophyton rubrum [38]): 1000 µg/mL (≈ 3130 µM)
- MIC (Trichophyton rubrum [38]): 1000 µg/mL (≈ 3130 µM)
- zone of inhibition at 250 µg/mL (Staphylococcus aureus [39]): 20 mm
- zone of inhibition at 100 µg/mL (Aspergillus clavatus [40]): 22 mm
- zone of inhibition at 250 µg/mL (Aspergillus clavatus [41]): 24 mm
- zone of inhibition at 25 µg/mL (Candida albicans [42]): 20 mm
- zone of inhibition at 25 µg/mL (Streptococcus pyogenes [43]): 12 mm
- MBC (Streptococcus pyogenes [44]): 100 µg/mL (≈ 313 µM)
- MIC (Streptococcus pyogenes [44]): 100 µg/mL (≈ 313 µM)
- zone of inhibition at 250 µg/mL (Penicillium [45]): 25 mm

Source: ChEMBL document CHEMBL3044736, “Synthesis, characterization, solvatochromic properties, and antimicrobial evaluation of 5-acetyl-2-thioxo-dihydro-pyrimidine-4,6-dione-based chalcones” (2013)
